From PubChem BioAssay (NCI)
Where “and” joins values, the source holds several entries; their conditions need not be identical. Equal values may be shown once.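 Exposure lasted 48 hours, with cells grown in 96-well plates and compounds tested at five concentrations. Here, GI50 denotes the concentration required for 50% inhibition of growth. At the TGI there is no net growth.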

Key:
Assay in all cases: NCI anticancer screen, dose series, 48 h
A498 renal = system: A498 renal
HT29 colon = system: HT29 colon
MALME-3M melanoma = system: MALME-3M melanoma
MDA-MB-435 = system: MDA-MB-435
MDA-N = system: MDA-N
NCI-H226 lung = system: NCI-H226 lung
PC-3 prostate = system: PC-3 prostate
SF-268 CNS = system: SF-268 CNS
SK-OV-3 ovarian = system: SK-OV-3 ovarian
SNB-19 CNS = system: SNB-19 CNS
SNB-75 CNS = system: SNB-75 CNS
SW-620 colon = system: SW-620 colon

| Structure (SMILES) | TGI (A498 renal) | TGI (HT29 colon) | TGI (MALME-3M melanoma) | TGI (MDA-MB-435) | TGI (MDA-N) | TGI (NCI-H226 lung) | TGI (PC-3 prostate) | TGI (SF-268 CNS) | TGI (SK-OV-3 ovarian) | TGI (SNB-19 CNS) | TGI (SNB-75 CNS) | TGI (SW-620 colon) | GI50 (SNB-75 CNS) |
| --- | --- | --- | --- | --- | --- | --- | --- | --- | --- | --- | --- | --- | --- |
| CCOC(=O)c1c[nH]c(C(=O)OCC)c1-c1cccn1-c1ccccc1 | 86.2 µM | 89.9 µM | 56.4 µM | > 100 µM | 99.2 µM | 98.8 µM | 82.5 µM | > 100 µM | 90.6 µM | > 100 µM | 52.2 µM | > 100 µM | – |
| O=C(O)c1nc2ccccc2nc1Nc1ccc(Cl)c(Cl)c1 | 41.6 µM | – | > 100 µM | > 100 µM | > 100 µM | > 100 µM | > 100 µM | > 100 µM | 88.1 µM | > 100 µM | > 100 µM | > 100 µM | – |
| CC1(C)C2CCC3CC(CCC#N)CCC3C21C#N (stereo not given) | > 100 µM | > 100 µM | > 100 µM | > 100 µM | > 100 µM | > 100 µM | > 100 µM | > 100 µM | > 100 µM | > 100 µM | – | > 100 µM | – |
| O=C1NC2NC3NC(=O)NC3NC2N1 (stereo not given) | > 100 µM | > 100 µM | > 100 µM | > 100 µM | > 100 µM | > 100 µM | > 100 µM | – | – | > 100 µM | > 100 µM | > 100 µM | – |
| COc1nc(N=P(c2ccccc2)(c2ccccc2)c2ccccc2)cc(=O)n1C | > 100 µM | > 100 µM | – | > 100 µM | > 100 µM | > 100 µM | > 100 µM | > 100 µM | > 100 µM | > 100 µM | > 100 µM | > 100 µM | – |
| FC(F)(F)c1ccccc1C1SCC2=Nc3ccccc3CN21 (stereo not given) | 35.3 µM | 30 µM | – | 93.1 µM | > 100 µM | 26.7 µM | 27.9 µM | 29.2 µM | 42 µM | 26.3 µM | 36.5 µM | > 100 µM | – |
| O=c1[nH]/c(=C/c2ccc3c(c2)OCO3)c(=O)[nH]/c1=C/c1ccc2c(c1)OCO2 | > 10 µM | > 10 µM | > 10 µM | > 10 µM | > 10 µM | > 10 µM | > 10 µM | > 10 µM | > 10 µM | > 10 µM | > 10 µM | > 10 µM | – |
| COc1ccc(C(O)/C(=N/N)c2nc3ccc(Cl)cc3[nH]c2=O)cc1 (stereo not given) | > 100 µM | > 100 µM | > 100 µM | > 100 µM | > 100 µM | > 100 µM | > 100 µM | > 100 µM | > 100 µM | > 100 µM | > 100 µM | > 100 µM | – |
| CNC(=O)c1n[nH]n(C2CCCCC2)c1=S | > 100 µM | > 100 µM | > 100 µM | > 100 µM | > 100 µM | > 100 µM | > 100 µM | > 100 µM | > 100 µM | > 100 µM | > 100 µM | > 100 µM | – |
| Clc1ccc(Nc2nnc(CNc3ccc(-c4nnc(Nc5ccc(Cl)cc5)s4)cc3)s2)cc1 | > 100 µM | 24.4 µM | > 100 µM | > 100 µM | 58.1 µM | > 100 µM | > 100 µM | > 100 µM | > 100 µM | > 100 µM | > 100 µM | > 100 µM | – |
| O=C/C(=C1/C=Cc2cc([N+](=O)[O-])ccc2S1)c1ccccc1 | > 100 µM | > 100 µM | > 100 µM | > 100 µM | > 100 µM | > 100 µM | > 100 µM | > 100 µM | > 100 µM | > 100 µM | > 100 µM | – | – |
| CC1=NN=C(C)C1N=Nc1ccc2nc(C)[nH]c2c1 | 38.2 µM | > 100 µM | > 50.5 µM | > 100 µM | > 100 µM | 34.8 µM | > 100 µM | > 83.1 µM | 24.2 µM | > 100 µM | 64.4 µM | > 100 µM | – |
| CC(C)Oc1c(C2(c3ccccc3)SCCCS2)c(=O)c1=O | > 100 µM | > 100 µM | – | > 100 µM | > 100 µM | > 100 µM | > 100 µM | > 100 µM | > 100 µM | > 100 µM | > 100 µM | > 100 µM | – |
| CC1=CC(=O)CC2(C)CCC(C(C)CC(=O)CC(C)C)CC12OO (stereo not given) | 31.5 µM and 49.4 µM | 43.2 µM and 31.1 µM | > 100 µM and 36.7 µM | 31.3 µM and 34.2 µM | 34.7 µM and 33.4 µM | 43.5 µM and 37.7 µM | 29.1 µM and 27.3 µM | 44.1 µM and 32.6 µM | – | > 100 µM | 44.9 µM and > 100 µM | 31.9 µM and 35.7 µM | 19.8 µM and 55.7 µM |
| O=C1CCN2c3ccccc3[C@H]3Cc4cccc(c4[C@@H]2C3)CCO1 | > 100 µM | > 100 µM | > 100 µM | > 100 µM | 80.3 µM | > 100 µM | > 100 µM | > 100 µM | > 100 µM | > 100 µM | 96.7 µM | > 100 µM | – |
| Cc1ccc(S(=O)c2cccs2)cc1 (stereo not given) | > 100 µM | > 100 µM | > 100 µM | > 100 µM | > 100 µM | > 100 µM | > 100 µM | > 100 µM | – | > 100 µM | – | > 100 µM | – |
| CN(C)CCN(C)P12(Oc3ccccc3O1)Oc1c(Cl)c(Cl)c(Cl)c(Cl)c1O2 | > 100 µM | > 100 µM | > 100 µM | > 100 µM | > 100 µM | > 100 µM | > 100 µM | > 100 µM | > 100 µM | > 100 µM | 82 µM | > 100 µM | – |
| CC1(C)CCN2C(=O)C34CCCC3CC21S4 (stereo not given) | > 100 µM | > 100 µM | > 100 µM | > 100 µM | > 100 µM | > 100 µM | > 100 µM | > 100 µM | > 100 µM | > 100 µM | – | > 100 µM | – |
